A word on the IC50: it is the point on the concentration scale where inhibition reaches its midpoint.

5 compounds from ChEMBL document CHEMBL5036364, “Cadinane-Type Sesquiterpenoids with Cytotoxic Activity from the Infected Stems of the Semi-mangrove Hibiscus tiliaceus” (J Nat Prod, 2022) can be followed below.

For one assay, the system named is Huh-7. Kind of assay: Cytotoxicity against human Huh-7 cells assessed as inhibition of cell growth in presence of 10% fetal bovine serum measured after 48 hrs incubation by MTT assay. The class given is functional, cell-based. Particulars: Huh-7, 48 h. (In general: Tetrazolium assays rely on reduction of a dye to a coloured formazan, in cell work by metabolically active cells.)

For another assay, the system named is HepG2. The assay is described as follows: Cytotoxicity against human HepG2 cells assessed as inhibition of cell growth n presence of 10% fetal bovine serum measured after 48 hrs incubation by MTT assay. Conditions: HepG2, 48 h. In kind it is functional, cell-based.

As for `COc1c(O)c(C)cc2c(C(C)C)cc(O)c(C=O)c12`, the IC50 in the assay on Huh-7 and with HepG2 was more than 10 µM throughout.

Consider `Cc1cc2c(C(C)C)cc(O)c(C=O)c2oc1=O`, for which the IC50 worked out at 4 µM in the assay with Huh-7 and 3.7 µM in the assay on HepG2.

Regarding `CO[C@@]1(C)C[C@@H]2c3c(coc3C1=O)C(=O)C[C@H]2C(C)C`, the IC50 is 6.6 µM in the assay on Huh-7 and 4.8 µM in the assay with HepG2.

Consider `COc1c(C)cc2c(C(C)C)cc(O)c(C=O)c2c1O`, for which the IC50 with Huh-7 and with HepG2 was more than 10 µM each time.

With `CC(C)[C@@H]1C=Cc2coc3c2[C@H]1C[C@@H](C)C3=O`, the results for the IC50 with Huh-7 and with HepG2 were 6.4 µM and 6.8 µM, respectively.
